Data taken from patent US5219884A, “Immunosuppressant” (Taito Co., Ltd., priority 1990, dated 1993).
Values after ≈ are worked out from the molar mass of the structure shown. Like-named read-outs stand apart in the source and are kept apart here.

Experiments:
[1] = system: human allogenic MLR (peripheral blood lymphocytes); assay: human allogenic MLR-suppressive activity; assay type: cell-based
Procedure: The human allogenic MLR-suppressive activity was assayed as follows:
Human peripheral blood lymphocytes obtained by Ficoll-Paque density gradient centrifugation of normal human peripheral blood were suspended in the RPMI1640 medium supplemented with 10% FCS, placed in plastic dishes, and incubated at 37° C. in an atmosphere of 5% carbon dioxide for 2 hours. After termination of incubation, the supernatant after gentle pipetting was harvested and centrifuged (1000 rpm, for 5 minutes) to obtain plastic-nonadherent cells. The plastic-nonadherent cells were allowed to pass through a nylon-wool column to give nylon-nonadherent cells, and the concentration of the cell suspension was adjusted to 4×10^6 cells/ml by using the RPMI1640 culture medium supplemented with 10% FCS, and used as the responder cell suspension.
The plastic-adherent cells were removed from the plastic dish by vigorous pipetting after addition of phosphate buffered saline supplemented with 5% FCS and 0.02% disodium ethylenediamine-tetraacetic acid (EDTA). The plastic-adherent cells were treated with 40 μg/ml of mitomycin C at 37° C. for 60 minutes, washed three times, and suspended to the concentration of 4×10^6 cells/ml in the RPMI1640 culture medium supplemented with 10% FCS. The resultant suspension was used as the stimulator cell suspension. Fifty μl of the responder cell suspension from the donor A or C was mixed with 50 μl of the stimulator cell suspension from the donor B or D, to which 100 μl of the test substance was added, and cultured at 37° C. in the an atmosphere 5% carbon dioxide for 5 days.
After termination of the culture, 1.0 μCi/well of ^3 H-thymidine was added, and after 18 hours of culture, the cells were harvested by a cell-harvester. The radioactivity incorporated into the cells was measured by a liquid scintillation counter as the index of blastogenic response of lymphocytes in human allogenic MLR. The suppression of human allogenic MLR was evaluated by calculating the percent suppression by the following formula. [formula]

[2] = system: IL2-dependent mouse cell line CTLL-2; assay: suppression of IL-2 induced 3H-thymidine incorporation of CTLL-2; assay type: cell-based; settings: for inhibition at 0.01 µg/mL / inhibition at 0.1 µg/mL / inhibition at 1 µg/mL / inhibition at 10 µg/mL: Mus musculus; for inhibition at 0.01 µg/mL / inhibition at 0.1 µg/mL / inhibition at 10 µg/mL: read-out: Suppression
Procedure: IL2-dependent mouse cell line CTLL-2 cells were suspended in the RPMI1640 culture medium supplemented with 30% FCS to a concentration of 2×10^5 cells/ml. The suspension (50 μl) and 50 μl of concanavalin A-stimulated rat spleen cell culture supernatants containing IL2 were added to each well of 96-well microculture plates in which 100 μl of the test substance had been placed. After culturing at 37° C. in an atmosphere of 5% carbon dioxide for 20, 44, or 68 hours, 0.5 μCi/well of ^3 H-thymidine was added, and cultured for 4 hours under the same conditions. After termination of the culture, the cells were harvested by a cell harvester, and the radioactivity incorporated into the cells was measured by a liquid scintillation counter.

KATOIII = assay: in vitro; assay type: cell-based, human

CCCCCCC(=O)CCCCCC/C=C/CC1OC(=O)C(N)(CO)C1O (centres unmarked) [Example 4]
inhibition at 0.0001 µg/mL ([1]; Homo sapiens, Lymphocyte, donor A/donor B, 0.0001 μg/ml, read-out: Suppression): 32.3% | inhibition at 0.001 µg/mL ([1]; Homo sapiens, Lymphocyte, donor A/donor B, 0.001 μg/ml, read-out: Suppression): 47.4% | inhibition at 0.01 µg/mL ([1]; Homo sapiens, Lymphocyte, donor A/donor B, 0.01 μg/ml, read-out: Suppression): 65.8% | inhibition at 0.1 µg/mL ([1]; Homo sapiens, Lymphocyte, donor A/donor B, 0.1 μg/ml, read-out: Suppression): 89.2% | inhibition at 1 µg/mL ([1]; Homo sapiens, Lymphocyte, donor A/donor B, 1 μg/ml, read-out: Suppression): 83.5% | inhibition at 10 µg/mL ([1]; Homo sapiens, Lymphocyte, donor A/donor B, 10 μg/ml, read-out: Suppression): 86.4% | inhibition at 10 pg/mL ([1]; Homo sapiens, Lymphocyte, donor C/donor D, 0.00001 μg/ml, read-out: Suppression): 55.8% | inhibition at 0.0001 µg/mL ([1]; Homo sapiens, Lymphocyte, donor C/donor D, 0.0001 μg/ml, read-out: Suppression): 61.9% | inhibition at 0.001 µg/mL ([1]; Homo sapiens, Lymphocyte, donor C/donor D, 0.001 μg/ml, read-out: Suppression): 58.5% | inhibition at 0.01 µg/mL ([1]; Homo sapiens, Lymphocyte, donor C/donor D, 0.01 μg/ml, read-out: Suppression): 80.8% | inhibition at 0.1 µg/mL ([1]; Homo sapiens, Lymphocyte, donor C/donor D, 0.1 μg/ml, read-out: Suppression): 84.9% | inhibition at 1 µg/mL ([1]; Homo sapiens, Lymphocyte, donor C/donor D, 1 μg/ml, read-out: Suppression): 79.2% | IC50 ([1]; Lymphocyte, human allogenic MLR, read-out: 50%-inhibition concentration (IC50)): 0.79 ng/mL (≈ 2.06 nM) | 3H-thymidine uptake ([1]; donor A/donor B, 0.0001 μg/ml): 16963 cpm | 3H-thymidine uptake ([1]; donor A/donor B, 0.001 μg/ml): 13715 cpm | 3H-thymidine uptake ([1]; donor A/donor B, 0.01 μg/ml): 9754 cpm | 3H-thymidine uptake ([1]; donor A/donor B, 0.1 μg/ml): 4734 cpm | 3H-thymidine uptake ([1]; donor A/donor B, 1 μg/ml): 5954 cpm | 3H-thymidine uptake ([1]; donor A/donor B, 10 μg/ml): 5332 cpm | 3H-thymidine uptake ([1]; donor C/donor D, 0.00001 μg/ml): 7746 cpm | 3H-thymidine uptake ([1]; donor C/donor D, 0.0001 μg/ml): 6700 cpm | 3H-thymidine uptake ([1]; donor C/donor D, 0.001 μg/ml): 7278 cpm | 3H-thymidine uptake ([1]; donor C/donor D, 0.01 μg/ml): 3417 cpm | 3H-thymidine uptake ([1]; donor C/donor D, 0.1 μg/ml): 2708 cpm | 3H-thymidine uptake ([1]; donor C/donor D, 1 μg/ml): 3703 cpm | 3H-thymidine uptake ([2]; 24 hrs, 0.01 μg/ml): 5907 cpm | 3H-thymidine uptake ([2]; 24 hrs, 0.1 μg/ml): 4240 cpm | 3H-thymidine uptake ([2]; 24 hrs, 1 μg/ml): 5400 cpm | 3H-thymidine uptake ([2]; 24 hrs, 10 μg/ml): 2602 cpm | 3H-thymidine uptake ([2]; 48 hrs, 0.01 μg/ml): 21930 cpm | 3H-thymidine uptake ([2]; 48 hrs, 0.1 μg/ml): 9202 cpm | 3H-thymidine uptake ([2]; 48 hrs, 1 μg/ml): 7202 cpm | 3H-thymidine uptake ([2]; 48 hrs, 10 μg/ml): 7465 cpm | 3H-thymidine uptake ([2]; 72 hrs, 0.01 μg/ml, control 78515 cpm): 69355 cpm | 3H-thymidine uptake ([2]; 72 hrs, 0.1 μg/ml, control 78515 cpm): 16705 cpm | 3H-thymidine uptake ([2]; 72 hrs, 1 μg/ml, control 78515 cpm): 4088 cpm | 3H-thymidine uptake ([2]; 72 hrs, 10 μg/ml, control 78515 cpm): 11806 cpm | inhibition at 0.01 µg/mL ([2]; CTLL-2, 48 h): 13.3% | inhibition at 0.01 µg/mL ([2]; CTLL-2, 24 hrs, 0.01 μg/ml): 11.8% | inhibition at 0.1 µg/mL ([2]; CTLL-2, 24 hrs, 0.1 μg/ml): 37.5% | inhibition at 1 µg/mL ([2]; CTLL-2, 24 hrs, 1 μg/ml): 19.6% | inhibition at 10 µg/mL ([2]; CTLL-2, 24 hrs, 10 μg/ml): 62.7% | inhibition at 0.1 µg/mL ([2]; CTLL-2, 48 hrs, 0.1 μg/ml): 64.6% | inhibition at 1 µg/mL ([2]; CTLL-2, 48 hrs, 1 μg/ml): 72.7% | inhibition at 10 µg/mL ([2]; CTLL-2, 48 hrs, 10 μg/ml): 71.6% | inhibition at 0.01 µg/mL ([2]; CTLL-2, 72 hrs, 0.01 μg/ml, control 78515 cpm): 11.8% | inhibition at 0.1 µg/mL ([2]; CTLL-2, 72 hrs, 0.1 μg/ml, control 78515 cpm): 79.4% | inhibition at 1 µg/mL ([2]; CTLL-2, 72 hrs, 1 μg/ml, control 78515 cpm): 95.6% | inhibition at 10 µg/mL ([2]; CTLL-2, 72 hrs, 10 μg/ml, control 78515 cpm): 85.7% | Absorbancy (KATOIII; 0.1 μg/ml): 0.407 | Absorbancy (KATOIII; 1.0 μg/ml): 0.401 | Absorbancy (KATOIII; 10.0 μg/ml): 0.319 | Absorbancy (KATOIII; 100.0 μg/ml): 0.009
